Source: publication PMC4855798, “Cell-bound lipases from Burkholderia sp. ZYB002: gene sequence analysis, expression, enzymatic characterization, and 3D structural model” (BMC Biotechnology, 2016)

Test system: T1, LipC24
T1 construct: mature LipC24 coding region (ORF 438 aa), His6-tag, E. coli Origami2 (DE3), co-expressed with foldase LipB lacking N-terminal 70 residues; purified by HisTrap and DEAE, single 45 kDa band; counterpart in B. cepacia J2315 is BCAM2764
Experiment: spectrophotometric 4-nitrophenol release, non-linear regression
Format: biochemical, Burkholderia sp. ZYB002
Conditions: 40 °C, 20 mmol/L Na2HPO4-NaH2PO4 buffer pH 7.5; 0.1-1.8 mmol/L substrate

CCCCCCCCCCCCCC(=O)Oc1ccc([N+](=O)[O-])cc1 [4-nitrophenyl myristate]
Km: 370 ± 70 µM
